For one test, the target named is Carbonic anhydrase 9 (Homo sapiens, UniProt Q16790). Briefly: Inhibition of human carbonic anhydrase 9 incubated for 15 mins prior to testing measured for 10 to 100 secs by phenol red dye based stopped-flow CO2 hydration assay.
In the next test the target is Carbonic anhydrase 1 (Homo sapiens, UniProt P00915). Briefly: Inhibition of human carbonic anhydrase 1 incubated for 15 mins prior to testing measured for 10 to 100 secs by phenol red dye based stopped-flow CO2 hydration assay.
Chain of Carbonic anhydrase 1 (P00915 whole entry): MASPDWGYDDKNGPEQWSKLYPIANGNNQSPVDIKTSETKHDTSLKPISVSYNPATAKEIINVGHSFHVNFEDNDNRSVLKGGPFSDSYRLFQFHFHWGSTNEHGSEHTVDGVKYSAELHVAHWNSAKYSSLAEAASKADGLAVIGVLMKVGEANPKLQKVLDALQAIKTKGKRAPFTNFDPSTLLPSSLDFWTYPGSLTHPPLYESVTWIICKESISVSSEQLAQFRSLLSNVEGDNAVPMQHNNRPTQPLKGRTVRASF
For another test, the target named is Carbonic anhydrase 12 (Homo sapiens, UniProt O43570). Briefly: Inhibition of human carbonic anhydrase 12 incubated for 15 mins prior to testing measured for 10 to 100 secs by phenol red dye based stopped-flow CO2 hydration assay.
Chain of Carbonic anhydrase 12 (O43570 whole entry): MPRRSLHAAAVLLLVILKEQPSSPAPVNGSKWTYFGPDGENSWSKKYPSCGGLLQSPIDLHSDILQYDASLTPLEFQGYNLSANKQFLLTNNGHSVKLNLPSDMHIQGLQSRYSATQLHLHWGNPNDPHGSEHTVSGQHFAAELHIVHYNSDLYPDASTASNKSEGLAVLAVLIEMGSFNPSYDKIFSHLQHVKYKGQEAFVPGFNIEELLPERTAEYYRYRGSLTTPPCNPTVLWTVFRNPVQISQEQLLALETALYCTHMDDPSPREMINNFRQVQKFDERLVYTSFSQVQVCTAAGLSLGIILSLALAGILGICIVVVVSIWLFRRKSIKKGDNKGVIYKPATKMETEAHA
The target of test [1] is T1, Carbonic anhydrase 2 (Homo sapiens, UniProt P00918). Briefly: Inhibition of recombinant human carbonic anhydrase 2 incubated for 15 mins prior to testing measured for 10 to 100 secs by phenol red dye based stopped-flow CO2 hydration assay.
The target in test [2] is T1, Carbonic anhydrase 2. Briefly: Inhibition of recombinant human carbonic anhydrase 2 expressed in Escherichia coli BL21 (DE3) using 4-nitrophenyl acetate as substrate incubated for 10 mins prior to testing by spectrophotometric method.

What is called Ki is the dissociation constant of the complex between target and ligand, obtained from inhibition or displacement. In the case of `O=C(CSc1nccc(Nc2ccc(S(=O)(=O)Nc3ccccn3)cc2)n1)c1ccc(Cl)cc1`, the inhibitory constant (Ki) at Carbonic anhydrase 9 and on Carbonic anhydrase 1 was above 100 µM throughout.
Compound `NS(=O)(=O)c1ccc(Nc2ccnc(SCC(=O)c3ccc(F)cc3)n2)cc1` gave an inhibition constant Ki at Carbonic anhydrase 9 of 0.82 µM.
The same measure, in the same setting: next, `COc1ccc(C(=O)CSc2nccc(Nc3ccc(S(=O)(=O)Nc4cc(C)on4)cc3)n2)cc1`: above 100 µM.
On to `Cc1cc(NS(=O)(=O)c2ccc(Nc3ccnc(SCC(=O)c4ccc(F)cc4)n3)cc2)no1`, for which the values for the Ki at Carbonic anhydrase 9, at Carbonic anhydrase 12 and at Carbonic anhydrase 1 were 92.1 µM, above 100 µM and above 100 µM, respectively.
In the case of `O=C(CSc1nccc(Nc2ccc(S(=O)(=O)Nc3cncs3)cc2)n1)c1ccc(Cl)cc1`, affinity on Carbonic anhydrase 9 was put at a Ki of 0.55 µM.
Regarding `NS(=O)(=O)c1ccc(Nc2ccnc(SCC(=O)c3ccc(-c4ccccc4)cc3)n2)cc1`, the Ki on Carbonic anhydrase 9 was 0.23 µM; on Carbonic anhydrase 1, above 100 µM.
With `COc1ccc(C(=O)CSc2nccc(Nc3ccc(S(=O)(=O)Nc4ncccn4)cc3)n2)cc1`, the Ki on Carbonic anhydrase 9 was 2.51 µM; on Carbonic anhydrase 2 [1] it was above 100 µM; on Carbonic anhydrase 1 it was above 100 µM.
Regarding `O=C(CSc1nccc(Nc2ccc(S(=O)(=O)Nc3cncs3)cc2)n1)c1ccccc1`, at Carbonic anhydrase 9, the Ki is above 100 µM.
As for `Cc1cc(NS(=O)(=O)c2ccc(Nc3ccnc(SCC(=O)c4ccc(Cl)cc4)n3)cc2)no1`, the Ki is 8.94 µM at Carbonic anhydrase 9 and above 100 µM at Carbonic anhydrase 1.
With `NS(=O)(=O)c1ccc(Nc2ccnc(NS(=O)(=O)c3cccnc3)n2)cc1`, at Carbonic anhydrase 2 [2], the inhibition constant Ki turned out to be 0.004 µM.
Same read-out and setting: in the case of `NS(=O)(=O)c1ccc(Nc2ccnc(NS(=O)(=O)c3cccc(C(F)(F)F)c3)n2)cc1` it was 0.001 µM.
On to `NS(=O)(=O)c1ccc(Nc2ccnc(SCC(=O)c3ccc(Br)cc3)n2)cc1`, for which the Ki on Carbonic anhydrase 9 is above 100 µM.
On to `COc1ccc(C(=O)CSc2nccc(Nc3ccc(S(=O)(=O)Nc4ccccn4)cc3)n2)cc1`, for which the Ki at Carbonic anhydrase 9, at Carbonic anhydrase 2 [1] and on Carbonic anhydrase 1 was above 100 µM in each case.
`COc1ccc(C(=O)CSc2nccc(Nc3ccc(S(N)(=O)=O)cc3)n2)cc1`: on Carbonic anhydrase 9, the Ki turned out to be 5.17 µM.
The same measure, in the same setting: next, `NS(=O)(=O)c1ccc(Nc2ccnc(SCC(=O)c3ccc(Cl)cc3)n2)cc1`: above 100 µM; `NS(=O)(=O)c1ccc(Nc2ccnc(SCC(=O)c3ccc(C(F)(F)F)cc3)n2)cc1`: 39.2 µM.
The same measure, in the same setting: in the case of `NS(=O)(=O)c1ccc(Nc2ccnc(SCC(=O)c3ccccc3)n2)cc1` it was 0.16 µM; in that of `O=C(CSc1nccc(Nc2ccc(S(=O)(=O)Nc3cncs3)cc2)n1)c1ccc(C(F)(F)F)cc1`, above 100 µM; in that of `CC(=O)NS(=O)(=O)c1ccc(Nc2ccnc(SCC(=O)c3ccc(Cl)cc3)n2)cc1`, above 100 µM.
In the case of `O=C(CSc1nccc(Nc2ccc(S(=O)(=O)Nc3ccccn3)cc2)n1)c1ccccc1`, the Ki on Carbonic anhydrase 9 and at Carbonic anhydrase 1 was above 100 µM throughout.
